Entries after “also recorded” stand apart in the source; their conditions may differ.
Assays:
TgCRND8 mice [1] = assay: Morris water maze spatial reference memory test; assay type: in vivo, mouse; conditions: separate cohort; 28 days of treatment from 5 months of age; data not shown
TgCRND8 mice [2] = assay: Open field test for motor activity; assay type: in vivo, mouse; conditions: treated TgCRND8 mice vs untreated TgCRND8 and non-Tg littermates
Description: (§1) Behavioural tests: Morris Water Maze testing was performed as previously described. After non-spatial pre-training, mice underwent place discrimination training for 5 days with 4-trials per day, followed by a cued visible platform to rule out general motivational, learning deficits and motor problems, and a probe trial to evaluate memory. […] Open field test for motor activity was preformed as described previously. Duration of walking, pausing and grooming were analyzed as indices of spontaneous locomotor activity. Sensorimotor function was examined with an Economex™ accelerating rotarod (Columbus Instruments, Columbus, Ohio), as described elsewhere. The rod was set to accelerate at a rate of 0.2 r.p.m./s, from an initial, constant speed of 5 r.p.m. Latency to fall was recorded in four daily trials, conducted at 30 min intervals. All mice were trained for seven days before testing. The test day performance score for each animal was obtained by summing its latency to fall over the four trials
Behavioral tests. Morris water maze testing was carried out as previously described. After nonspatial pretraining, mice underwent place discrimination training for 5 d with four trials per day, followed by a cued visible platform trial and a probe trial. An open-field test for motor activity was carried out as described previously. Sensorimotor function was assessed with an Economex accelerating rotarod (Columbus Instruments) as previously described.
Behavioural tests. Morris Water Maze testing was performed as previously described. After non-spatial pre-training, mice underwent place discrimination training for 5 days with 4-trials per day, followed by a cued visible platform to rule out general motivational, learning deficits and motor problems, and a probe trial to evaluate memory. The probe trial was conducted at 72 h after the last testing, and used an annulus-crossing index to assess spatial recall. […]
(§2) Duration of walking, pausing and grooming were analyzed as indices of spontaneous locomotor activity. […] Latency to fall was recorded in four daily trials, conducted at 30 min intervals. […]

β-secretase = biological target: T1, β-secretase (Homo sapiens, UniProt P56817); assay: In vitro β-secretase activity assay; assay type: cell-based
T1 construct: endogenous in cells

TgCRND8 mice [3] = assay: Accelerating rotarod, sensorimotor function; assay type: in vivo, mouse; conditions: treated vs untreated TgCRND8 mice and non-Tg littermates
Description: as §1
Behavioral tests. Morris water maze testing was carried out as previously described. […] Sensorimotor function was assessed with an Economex accelerating rotarod (Columbus Instruments) as previously described.
as §2

Aβ oligomeric species = biological target: T2, Aβ oligomeric species (Homo sapiens, UniProt P05067); assay: Western blot of soluble brain fractions for Aβ species; assay type: in vivo, mouse
T2 construct: from tissue; host or cells: soluble fraction of hemi-brain homogenates of TgCRND8 transgenic mice
Description: Soluble Aβ oligomer analyses. Levels of soluble Aβ oligomers were measured by a dot-blot assay with oligomer-specific antibodies on all brain homogenates from all experimental groups. Soluble oligomers were also examined by western blot analyses.
Samples were centrifuged (100,000 g, 20 min, 4° C.), supernatant collected and frozen at −80° C. until use. Proteins (20 μg) were separated by SDS-PAGE on a 10-20% Tris-Tricine gel, transferred to a nitrocellulose membrane, blocked for 1 h at room temp with 8% non-fat milk and incubated overnight with anti-Aβ (6E10; 1:2,500). Membranes were rinsed with TBST, exposed to anti-mouse (1:5,000) for 1 h at room temperature, washed with TBST (6×10 min) and developed using enhanced chemiluminescence. Blots were stripped and re-probed with either anti-APP (22C11; 1:1,000) or anti-GAPDH (1:10,000) to confirm equal protein loading.

γ-secretase = assay: In vitro γ-secretase assay in HEK293 cells transfected with human APPswe; assay type: cell-based
Description: FIG. 9. In vitro γ-secretase assays in HEK293 cells transfected with human APPswe. After swAPP stable HEK293 cells were untreated or treated with AZD-103 or 10 nM compound E, cell membranes were used for APP-FL and —CTF detection and for e-stubs generation in vitro assays at 37° C. for 1 hr. Lanes 1&[…] AZD-103 treatment; lanes 3&4 […] AZD-103 treatment; lanes 5&6 compound E treated and lanes 7&8 untreated HEK293 APPswe cells.
Analysis of APP processing. Mouse hemi-brain samples were homogenized and spun at 109,000 g, in 20 mM Tris pH 7.4, 0.25 M sucrose, 1 mM EDTA and 1 mM EGTA, and a protease inhibitor cocktail, mixed with a mixture of 0.4% DEA (diethylamine) and 100 mMNaCl. The supernatants were analyzed for APP levels by western blotting using the monoclonal antibody 22C11, and the pellets were analyzed for APP holoprotein with the monoclonal antibody C1/6.1 as previously described. […] The target protein was probed with polyclonal APP C-terminal fragment-specific antibody (Sigma) by western blotting.

[4] = test system: transgenic TauP301L mouse model; assay: Synaptophysin quantification in TgTauP301L mice; assay type: in vivo; conditions: TgTauP301L mice after treatment
Description: Synaptophysin immunohistochemical staining was performed on 3 evenly spaced saggital sections of paraformaldehyde-fixed treated and control mice. Sections were immunolabelled for synaptophysin with anti-synaptophysin IgG (1:40; Roche, Laval, PQ). Digital images were captured and analyzed as described above. Within each section, three randomly chosen 100 μm2 areas of the CA1 region of the hippocampus were counted for synaptophysin reactive cell bodies and boutons. The results are expressed as the mean of the number of reactive bodies and boutons per 100 μm2 [33, 34].
Synaptophysin quantification. Immunohistochemical staining was carried out for synaptophysin on three evenly spaced sagittal sections of paraformaldehyde-fixed treated and control mice. Sections were immunolabeled for synaptophysin with synaptophysin-specific IgG (1:40; Roche). Digital images were captured and analyzed as described above. Within each section, three randomly chosen 100 μm2 areas of the CA1 region of the hippocampus were counted for synaptophysin-reactive cell bodies and boutons. The results are expressed as the mean of the number of reactive bodies and boutons per 100 μm2 [33, 34].

[5] = 4-month-old TgCRND8 mice, treated (n=4) vs untreated (n=4)
[6] = 4-month-old treated vs untreated TgCRND8 mice, densitometry

T2 sequence (P05067 672-713 limits assumed): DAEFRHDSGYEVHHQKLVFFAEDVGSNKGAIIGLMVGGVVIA
T1 sequence (P56817 46-501): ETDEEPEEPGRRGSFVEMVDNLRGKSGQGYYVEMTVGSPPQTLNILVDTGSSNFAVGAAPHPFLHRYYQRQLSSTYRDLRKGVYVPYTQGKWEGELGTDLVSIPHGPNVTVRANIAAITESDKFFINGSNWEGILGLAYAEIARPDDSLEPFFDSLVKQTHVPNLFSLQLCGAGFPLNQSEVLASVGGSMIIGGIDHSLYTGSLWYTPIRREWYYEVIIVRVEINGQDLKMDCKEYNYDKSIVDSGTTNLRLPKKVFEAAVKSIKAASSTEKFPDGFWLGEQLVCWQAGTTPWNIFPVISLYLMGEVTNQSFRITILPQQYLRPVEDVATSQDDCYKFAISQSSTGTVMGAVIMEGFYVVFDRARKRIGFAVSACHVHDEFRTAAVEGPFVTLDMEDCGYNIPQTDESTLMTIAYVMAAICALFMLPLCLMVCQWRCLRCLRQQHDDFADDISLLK

Which results are given for `OC1C(O)C(O)C(O)C(O)C1O` (centres unmarked) [scyllo-cyclohexanehexol, 1,3,5/2,4,6-(scyllo-) cyclohexanehexol]?
probe trial, % time in target quadrant, compared with non-Tg littermates (TgCRND8 mice [1]): not statistically different from non-Tg littermates; open field: grooming, pausing, walking / activity levels (TgCRND8 mice [2]): indistinguishable; also recorded: does not affect activity levels; open field: grooming, pausing, walking / activity levels (TgCRND8 mice [2]; listed as AZD-103): does not affect activity levels; open field: grooming, pausing, walking / activity levels (TgCRND8 mice [2]; listed as Scyllo-cyclohexanehexol): no effect on grooming or activity; β-secretase enzyme activity (β-secretase): no effect; rotarod sensorimotor function (TgCRND8 mice [3]): no difference; also recorded: indistinguishable; high-molecular-weight Aβ species (Aβ oligomeric species; [5]): decrease in high-molecular-weight Aβ species; smaller Aβ oligomers (Aβ oligomeric species; [5]): increase in smaller oligomers; increase in low-molecular-weight trimeric Aβ species (Aβ oligomeric species; [6]): 282±5%; reduction of high-molecular-weight Aβ oligomeric species (Aβ oligomeric species; [6]): 25±4.5%; γ-secretase enzyme activity (γ-secretase): no effect; synaptophysin reactivity / synaptic loss [4]: unchanged; synaptophysin reactivity / synaptic loss ([4]; listed as AZD-103): unchanged; synaptophysin reactivity / synaptic loss ([4]; listed as scyllocyclohexanehexol): no effect on synaptic loss

Reference: patent publication US20070197452A1, “Treatment of amyloid-related diseases” (priority 2006, published 2007)
